Experimental data published in patent US20070010671A1, “Novel quinazoline derivatives and methods of treatment related to the use thereof” (priority 2003, published 2007).

biological target: MCH receptor (Homo sapiens, UniProt Q99705); assay: High throughput functional screening FLIPR/FDSS6000: inhibition of MCH-evoked intracellular Ca2+ changes; format: cell-based; conditions: class by percent of control at 10^-7 M or IC50
Procedure, shortened: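 Cells expressing constitutively active MCH receptor, loaded with 4 μM Fluo4-AM for 1 h at 37 °C, were pretreated 3 min with compound, then challenged with MCH (50 nM for antagonist testing). MCH-evoked [Ca2+]i transients followed by FLIPR or FDSS (ex 488/em 530 nm) over 290 s.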

Compound | class
N-(2,5-dimethylphenyl)-N′-[(cis-4-{[4-(dimethylamino)quinazolin-2-yl]amino}cyclohexyl)methyl]urea [compound 480] | 2 (Class 2: The value of percent of control at 10^−7 M was from 40% to 60% or the value of IC50 was from 50 nM to 200 nM.)
N-(3,5-difluorobenzyl)-N′-[(cis-4-{[4-(dimethylamino)quinazolin-2-yl]amino}cyclohexyl)methyl]urea [compound 524] | 1 (Class 1: The value of percent of control at 10^−7 M was less than 40% or the value of IC50 was less than 50 nM.)
N-[(cis-4-{[4-(dimethylamino)quinazolin-2-yl]amino}cyclohexyl)methyl]-N′-(2,4,6-tribromophenyl)urea [compound 475] | 1 (Class 1: The value of percent of control at 10^−7 M was less than 40% or the value of IC50 was less than 50 nM.)
N-[(cis-4-{[4-(dimethylamino)quinazolin-2-yl]amino}cyclohexyl)methyl]-N′-(2-methoxy-4-nitrophenyl)urea [compound 507] | 2 (Class 2: The value of percent of control at 10^−7 M was from 40% to 60% or the value of IC50 was from 50 nM to 200 nM.)
N-[(cis-4-{[4-(dimethylamino)quinazolin-2-yl]amino}cyclohexyl)methyl]-N′-(2-methoxy-5-nitrophenyl)urea [compound 508] | 2 (Class 2: The value of percent of control at 10^−7 M was from 40% to 60% or the value of IC50 was from 50 nM to 200 nM.)

same assay, conditions: class by percent of control at 10^-7 M or by IC50; read-out: class

Compound | IC50 [nM]
CN(C)c1nc(N[C@H]2CC[C@@H](NC(=O)Oc3cccc(C(F)(F)F)c3)CC2)nc2ccccc12 [compound 849] | > 200
CN(C)c1nc(N[C@H]2CC[C@@H](NC(=O)Oc3ccc(Br)cc3)CC2)nc2ccccc12 [compound 850] | > 200
COc1ccccc1OC(=O)N[C@H]1CC[C@@H](Nc2nc(N(C)C)c3ccccc3n2)CC1 [compound 851] | > 200
CCOC(=O)N[C@H]1CC[C@@H](Nc2nc(N(C)C)c3ccccc3n2)CC1 [compound 854] | > 200
CN(C)c1nc(N[C@H]2CC[C@@H](NC(=O)Oc3ccc4ccccc4c3)CC2)nc2ccccc12 [compound 856] | > 200
CN(C)c1nc(N[C@H]2CC[C@@H](NC(=O)Oc3ccccc3)CC2)nc2ccccc12 [compound 859] | > 200
CC(C)[C@@H]1CC[C@@H](C)C[C@H]1OC(=O)N[C@H]1CC[C@@H](Nc2nc(N(C)C)c3ccccc3n2)CC1 [compound 860] | > 200
Cc1ccc(OC(=O)N[C@H]2CC[C@@H](Nc3nc(N(C)C)c4ccccc4n3)CC2)cc1 [compound 861] | > 200
COC(=O)N[C@H]1CC[C@@H](Nc2nc(N(C)C)c3ccccc3n2)CC1 [compound 862] | > 200
CN(C)c1nc(N[C@H]2CC[C@@H](NC(=O)OCc3ccccc3Cl)CC2)nc2ccccc12 [compound 863] | 50 to 200
CN(C)c1nc(N[C@H]2CC[C@@H](CNC(=O)OCCOCc3ccccc3)CC2)nc2ccccc12 [compound 866] | > 200
CN(C)c1nc(N[C@H]2CC[C@@H](CNC(=O)OCC(C)(C)C)CC2)nc2ccccc12 [compound 867] | > 200
COc1cc(COC(=O)NC[C@H]2CC[C@@H](Nc3nc(N(C)C)c4ccccc4n3)CC2)c([N+](=O)[O-])cc1OC [compound 868] | > 200
CN(C)c1nc(N[C@H]2CC[C@@H](CNC(=O)Oc3cccc(C(F)(F)F)c3)CC2)nc2ccccc12 [compound 869] | > 200
CN(C)c1nc(N[C@H]2CC[C@@H](CNC(=O)Oc3ccc(Br)cc3)CC2)nc2ccccc12 [compound 870] | > 200
COc1ccccc1OC(=O)NC[C@H]1CC[C@@H](Nc2nc(N(C)C)c3ccccc3n2)CC1 [compound 871] | > 200
CCOC(=O)NC[C@H]1CC[C@@H](Nc2nc(N(C)C)c3ccccc3n2)CC1 [compound 874] | > 200
CN(C)c1nc(N[C@H]2CC[C@@H](CNC(=O)OCc3ccc([N+](=O)[O-])cc3)CC2)nc2ccccc12 [compound 875] | 50 to 200
CN(C)c1nc(N[C@H]2CC[C@@H](CNC(=O)Oc3ccc4ccccc4c3)CC2)nc2ccccc12 [compound 876] | > 200
CN(C)c1nc(N[C@H]2CC[C@@H](CNC(=O)Oc3ccccc3)CC2)nc2ccccc12 [compound 879] | > 200
Cc1ccc(OC(=O)NC[C@H]2CC[C@@H](Nc3nc(N(C)C)c4ccccc4n3)CC2)cc1 [compound 881] | > 200
CN(C)c1nc(N[C@H]2CC[C@@H](CNC(=O)OCC3c4ccccc4-c4ccccc43)CC2)nc2ccccc12 [compound 884] | > 200
CN(C)c1nc(N[C@H]2CC[C@@H](CNC(=O)OCC(Cl)(Cl)Cl)CC2)nc2ccccc12 [compound 885] | > 200
N-[3-(dimethylamino)propyl]-N′-[(cis-4-{[4-(dimethylamino)-quinazolin-2-yl]amino}cyclohexyl)methyl]thiourea [compound 807] | > 200

The next lines start with the values.

IC50 [nM] | Compound
> 200 | COCCOC(=O)N[C@H]1CC[C@@H](Nc2nc(N(C)C)c3ccccc3n2)CC1 [compound 852]
> 200 | CCCCCCCCOC(=O)N[C@H]1CC[C@@H](Nc2nc(N(C)C)c3ccccc3n2)CC1 [compound 853]
< 50 | CN(C)c1nc(N[C@H]2CC[C@@H](NC(=O)OCc3ccc([N+](=O)[O-])cc3)CC2)nc2ccccc12 [compound 855]
> 200 | C=CCOC(=O)N[C@H]1CC[C@@H](Nc2nc(N(C)C)c3ccccc3n2)CC1 [compound 857]
50 to 200 | CN(C)c1nc(N[C@H]2CC[C@@H](NC(=O)OCc3ccccc3)CC2)nc2ccccc12 [compound 858]
> 200 | CN(C)c1nc(N[C@H]2CC[C@@H](NC(=O)OCC3c4ccccc4-c4ccccc43)CC2)nc2ccccc12 [compound 864]
> 200 | CN(C)c1nc(N[C@H]2CC[C@@H](NC(=O)OCC(Cl)(Cl)Cl)CC2)nc2ccccc12 [compound 865]
> 200 | COCCOC(=O)NC[C@H]1CC[C@@H](Nc2nc(N(C)C)c3ccccc3n2)CC1 [compound 872]
> 200 | CCCCCCCCOC(=O)NC[C@H]1CC[C@@H](Nc2nc(N(C)C)c3ccccc3n2)CC1 [compound 873]
> 200 | C=CCOC(=O)NC[C@H]1CC[C@@H](Nc2nc(N(C)C)c3ccccc3n2)CC1 [compound 877]
50 to 200 | CN(C)c1nc(N[C@H]2CC[C@@H](CNC(=O)OCc3ccccc3)CC2)nc2ccccc12 [compound 878]
> 200 | CC1CCC(C(C)C)C(OC(=O)NCC2CCC(Nc3nc(N(C)C)c4ccccc4n3)CC2)C1 (stereo not drawn) [compound 880]
> 200 | COC(=O)NC[C@H]1CC[C@@H](Nc2nc(N(C)C)c3ccccc3n2)CC1 [compound 882]
50 to 200 | CN(C)c1nc(N[C@H]2CC[C@@H](CNC(=O)OCc3ccccc3Cl)CC2)nc2ccccc12 [compound 883]

same assay, conditions: class by percent of control at 10^−7 M or by IC50; read-out: class

IC50 [nM] | Compound
50 to 200 | N-(cis-4-{[4-(dimethylamino)quinazolin-2-yl]amino}cyclohexyl)-6-(3,4,5-trimethoxyphenoxy)nicotinamide [Example 1067]
< 50 | N-(cis-4-{[4-(dimethylamino)quinazolin-2-yl]amino}cyclohexyl)-6-(3-methylphenoxy)nicotinamide [Example 1055]
